# Patent publication US20090036540A1, “Guanylhydrazones in Methods of Treatment or Diagnosis as Modulators of Signal Transduction” (Cytokine PharmaSciences, Inc., priority 2003, published 2009)
# Legend:
# [1] = CRP serum levels of Crohn's disease patients in the Semapimod pilot study; type: in vivo, human
# Description: FIGS. 9A and B show the IHC analysis of Crohn's disease patients who participated in the Semapimod pilot study. […] CRP levels of patient #12 were not affected by Semapimod (e.g. nonresponder). Importantly, pMek1/2 expression was also not affected by Semapimod in this nonresponder. […] This finding correlates with the low CRP levels at baseline (FIG. 9B).
# [2] = system: Peripheral Blood Mononuclear Cells; assay: PepChip kinome array: in vitro phosphorylation of peptide array by lysates of LPS-stimulated PBMCs; type: cell-based, human; settings: PBMC lysate, 1.0 μM CNI-1493, 100 ng/ml LPS
# Experimental: Peripheral Blood Mononuclear Cells (PBMCs) were isolated from peripheral blood from healthy volunteers using standard density-gradient centrifugation over Ficoll-Paque Plus (Amersham Pharmacia Biotech AB, Uppsala, Sweden) after washing in resuspension in IMDM supplemented with 10% FBS, penicillin, streptomycin and amphotericin (hereafter referred to as complete IMDM).
# For kinome array samples, 10^7 PBMCs were suspended in 5 ml media (IMDM supplemented with 1.0% human serum). LPS stimulation consisted of a […] (37° C., 5% CO2) with 100 ng/ml LPS (E. coli, serotype 0111:B4). CNI treated PBMCs were maintained in media dosed with 1.0 μM CNI-1493 (Cytokine PharmaSciences, Inc.) 1 hour before and during incubation for LPS stimulation. Stimulations were terminated by an ice-cold PBS wash. PBMCs were lysed in 200 μl cell lysis buffer (20 mM Tris-HCl (pH 7.5), 150 mM NaCl, 1 mM Na2EDTA, 1 mM EGTA, 1% Triton, 2.5 mM sodium pyrophosphate, 1 mM MgCl2, 1 mM beta-glycerophosphate, 1 mM Na3VO4, 1 mM NaF, 1 μg/ml leupeptin, 1 μg/ml aprotinin, 1 mM PMSF) and the volume of the cell lysate were equalised with dH2O. The cell lysates were subsequently cleared on a 0.22 μm filter. PepChip incubation mix was produced by adding 10 μl of filter-cleared activation mix (50% glycerol, 50 μM ATP, 0.05% v/v Brij-35, 0.25 mg/ml BSA, ^33P-γ-ATP (1000 kBq)). Next, the PepChip mix is added onto the chip and the chip is kept at 37° C. in a humidified stove for 90 minutes. Subsequently, the PepChip was washed once with TBST, twice in 2M NaCl and twice in demineralised H2O and air-dry the PepChip slips. The experiments were performed three times in duplicate. The average inter-experimental variance in relative values was less than 5% for all spots.
# The chips were exposed to a phosphoimager plate for 72 hours and the spots were analysed on AIDA analysing software. For graphical visualisation of the spots in FIG. 2 the data of four arrays was averaged to eliminate false positives.
smiles,measurement,setting,value
C/C(=N\NC(=N)N)c1cc(NC(=O)CCCCCCCCC(=O)Nc2cc(/C(C)=N/NC(=N)N)cc(/C(C)=N/NC(=N)N)c2)cc(/C(C)=N/NC(=N)N)c1 [Semapimod],"CRP, responders","[1]; Crohn's disease patients n=5, all responders",CRP decrease
same,"CRP levels, nonresponder",[1]; patient #12,not affected
same,"LPS + CNI: peptide phosphorylation, Kinase p34cdc2, Substrate Vimentin","[2]; Control 192, LPS 214",300
same,"LPS + CNI: peptide phosphorylation, Kinase CKII, Substrate Lamin B R","[2]; Control 214, LPS 1736",250
same,"LPS + CNI: peptide phosphorylation, Kinase p34cdc2, Substrate c-Src","[2]; Control 230, LPS 248",270
same,"LPS + CNI: peptide phosphorylation, Kinase CKII, Substrate TOPII","[2]; Control 231, LPS 900",900
same,"LPS + CNI: peptide phosphorylation, Kinase CKII, Substrate Lamin D","[2]; Control 242, LPS 822",320
same,"LPS + CNI: peptide phosphorylation, Kinase Auto, Substrate PKG","[2]; Control 246, LPS 8100",320
same,"LPS + CNI: peptide phosphorylation, Kinase GRK, Substrate Tau","[2]; Control 248, LPS 230",250
same,"LPS + CNI: peptide phosphorylation, Kinase JAK, Substrate STAT1a/b","[2]; Control 248, LPS 7704",231
same,"LPS + CNI: peptide phosphorylation, Kinase Cdc2, Substrate CKII","[2]; Control 268, LPS 1728",265
same,"LPS + CNI: peptide phosphorylation, Kinase CytoK Rec, Substrate FPS","[2]; Control 270, LPS 5512",265
same,"LPS + CNI: peptide phosphorylation, Kinase CK II?, Substrate TOPII","[2]; Control 274, LPS 280",300
same,"LPS + CNI: peptide phosphorylation, Kinase PKA, Substrate MBP","[2]; Control 280, LPS 1250",265
same,"LPS + CNI: peptide phosphorylation, Kinase Scr-family?, Substrate PTP-2C","[2]; Control 287, LPS 5960",250
same,"LPS + CNI: peptide phosphorylation, Kinase PKA, Substrate HSP27","[2]; Control 288, LPS 1072",298
same,"LPS + CNI: peptide phosphorylation, Kinase PKC, Substrate HSP27","[2]; Control 291, LPS 280",300
same,"LPS + CNI: peptide phosphorylation, Kinase PKA, Substrate v-Rel","[2]; Control 291, LPS 2574",291
same,"LPS + CNI: peptide phosphorylation, Kinase GSK3, Substrate GS","[2]; Control 312, LPS 320",250
same,"LPS + CNI: peptide phosphorylation, Kinase p34cdc2, Substrate CKII","[2]; Control 320, LPS 560",291
same,"LPS + CNI: peptide phosphorylation, Kinase PKA, Substrate Tau","[2]; Control 340, LPS 340",250
same,"LPS + CNI: peptide phosphorylation, Kinase PKA, Substrate c-Rel","[2]; Control 421, LPS 250",261
same,"LPS + CNI: peptide phosphorylation, Kinase p34cdc2, Substrate AP-1","[2]; Control 460, LPS 548",274
same,"LPS + CNI: peptide phosphorylation, Kinase PKA, Substrate MBP","[2]; Control 536, LPS 822",248
same,"LPS + CNI: peptide phosphorylation, Kinase CaM-II, Substrate MBP","[2]; Control 600, LPS 265",680
same,"LPS + CNI: peptide phosphorylation, Kinase PKA, Substrate GS","[2]; Control 795, LPS 7980",340
same,"LPS + CNI: peptide phosphorylation, Kinase PKA/Ca2+, Substrate Trp-5-MO","[2]; Control 1164, LPS 23925",1305
same,"LPS + CNI: peptide phosphorylation, Kinase PKA, Substrate GS","[2]; Control 1440, LPS 1020",3450
same,"LPS + CNI: peptide phosphorylation, Kinase PKC, Substrate Lamin B1","[2]; Control 2016, LPS 268",1072
same,"LPS + CNI: peptide phosphorylation, Kinase PKC, Substrate MBP","[2]; Control 2376, LPS 198",319
same,"LPS + CNI: peptide phosphorylation, Kinase PKA, Substrate P450","[2]; Control 2412, LPS 19980",265
same,"LPS + CNI: peptide phosphorylation, Kinase PKC, Substrate ACC-a","[2]; Control 2750, LPS 10692",861
same,"LPS + CNI: peptide phosphorylation, Kinase CKII, Substrate TOPII","[2]; Control 3836, LPS 320",291
same,"LPS + CNI: peptide phosphorylation, Kinase Src, Substrate Annexin2","[2]; Control 4438, LPS 8745",287
same,"LPS + CNI: peptide phosphorylation, Kinase PKC, Substrate EIF4E","[2]; Control 4494, LPS 41272",6699
same,"LPS + CNI: peptide phosphorylation, Kinase and Substrate not given","[2]; Control 4960, LPS 530",254
same,"LPS + CNI: peptide phosphorylation, Kinase CKI, Substrate GS","[2]; Control 5616, LPS 13386",300
